# Source: patent publication EP0041047A2, “Dioxide compounds, process for their preparation and their use” (CIBA-GEIGY AG, priority 1980, dated 1981)
# Legend:
# [1] = tested on: Escherichia coli 205 R^+ TEM; assay: Protection of infected mice, subcutaneous application (ED50); format: in vivo, Maus
# Description: (§1) Aufgrund dieser ß-Lactamase-inhibierenden Wirkung erhöhen die Verbindungen der vorliegenden Erfindung die Wirkung von β-Lactamantibiotika in vitro und in vivo, wie durch Vergleich der antibiotischen Wirkungen von Verbindungen der vorliegenden Erfindung und von β-Lactamantibiotika allein und in Kombination miteinander festgestellt werden kann. Beispielsweise liegen in vitro die MIC-Werte von 1:1 Kombinationen der erfindungsgemässen Verbindung der Formel (I), worin R1 Hydroxy und R2 Carboxy bedeuten, oder des Natriumsalzes davon mit Ampicillin, Cefsulodin (CGP7174/E) oder Cefotiam (CGP14221/E) gegen eine Reihe der obengenannten ß-Lactamase produzierenden Mikroorganismen signifikant niedriger als die MIC-Werte der Einzelverbindungen. In vivo, beispielsweise bei subcutaner Applikation an Mäusen, die mit ß-Lactamase produzierenden Mikroorganismen infiziert wurden, z.B. mit Escherichia coli 205 R^+ TEM oder Morganella morganii 2359, wurde eine signifikante Erniedrigung der ED50-Werte gegenüber denjenigen der Einzelkomponenten festgestellt. Einige Werte sind in der folgenden Tabelle zusammengestellt: […]
# [2] = tested on: Morganella morganii 2359; assay: as above; format: in vivo; settings: infecting microorganism Morganella morg. 2359
# Description: as §1
Compound,"ED50 ([1]; Escherichia coli, sc, read-out: s.c. ED50 (mg/kg, Maus)) [mg/kg]","ED50 ([2]; Morganella morganii, sc, Maus) [mg/kg]","s.c. ED50 (mg/kg, Maus) ([1]; Maus, s.c., infecting microorganism Esch.coli: 205 RT) [mg/kg]","s.c. ED50 (mg/kg, Maus) [2] [mg/kg]"
"CN(C)CCn1nnnc1SCC1=C(C(=O)O)N2C(=O)[C@@H](NC(=O)Cc3csc(N)n3)[C@H]2SC1 [B, Cefotiam]",70,75,,
"(3R, 5R, 6R)-2,2-Dimethyl-6-hydroxymethylpenam-3-carbonsäure-1,1-dioxid-natriumsalz",,,100,100
